Columns and labels:
[1] = test system: RAW264.7; assay: Antiinflammatory activity in mouse RAW264.7 cells assessed as inhibition of LPS-induced NO production by Griess method; format: functional, cell-based
[2] = test system: Rattus norvegicus; assay: Antiinflammatory activity in rat model of ethyl phenylpropiolate-induced ear edema assessed as reduction in ear thickness administered topically and measured after 30 mins; format: functional; conditions: 0.5 h
[3] = test system: Rattus norvegicus; assay: Antiinflammatory activity in rat model of ethyl phenylpropiolate-induced ear edema assessed as reduction in ear thickness administered topically and measured after 1 hr; format: functional
[4] = test system: Rattus norvegicus; assay: Antiinflammatory activity in rat model of ethyl phenylpropiolate-induced ear edema assessed as 30% reduction in ear thickness administered topically and measured after 30 mins; format: functional; conditions: 0.5 h
[5] = test system: Rattus norvegicus; assay: Antiinflammatory activity in rat model of ethyl phenylpropiolate-induced ear edema assessed as 30% reduction in ear thickness administered topically and measured after 1 hr; format: functional
[6] = test system: Rattus norvegicus; assay: Antiinflammatory activity in rat model of carrageenan-induced hind paw edema assessed as reduction in paw thickness at 100 mg/kg,ip 30mins before carrageenin exposure and measured after 3 hrs; format: functional; set-up: scale not given: the % may be the effect or the level left
[7] = test system: RAW264.7; assay: Antiinflammatory activity in mouse RAW264.7 cells assessed as inhibition of LPS-induced NO production at 30 uM preincubated for 0.5 hrs followed by LPS stimulation and measured after 24 hrs by Griess reagent based analysis; format: functional; conditions: time 24.5 hrs
[8] = test system: J774.A1; assay: Antiinflammatory activity in mouse J774.A1 cells assessed as inhibition of LPS-induced NO production incubated for 24 hrs by Griess reagent based analysis; format: functional, cell-based; conditions: J774.A1, 24 h
[9] = test system: Mus musculus; assay: Antiinflammatory activity in ICR mouse model of TPA-induced ear edema assessed as inhibition of ear inflammation at 1 mg,TOP for 30 mins followed by TPA addition and measured after 6 hrs; format: functional; conditions: time 390 min, 6.5 h
[10] = Antioxidant activity assessed as DPPH radical scavenging activity incubated for 30 mins by spectrophotometric analysis; format: functional
[11] = Antioxidant activity assessed as nitroblue tetrazolium superoxide radical scavenging activity by spectrophotometric analysis; format: functional
[12] = Antioxidant activity assessed as nitroblue tetrazolium superoxide radical scavenging activity incubated for 10 mins by spectrophotometric analysis; format: functional
[13] = test system: RAW264.7; assay: Antiinflammatory activity in mouse RAW264.7 cells assessed as inhibition of LPS-induced NO production preincubated for 1 hrs followed by LPS stimulation and measured after 24 hrs by Griess reagent based analysis; format: functional, cell-based
[14] = test system: RAW264.7; assay: Antiinflammatory activity in mouse RAW264.7 cells assessed as inhibition of LPS-induced NO production incubated for 24 hrs by Griess method; format: functional, cell-based; conditions: RAW264.7, 24 h
[15] = test system: RAW264.7; assay: Antiinflammatory activity in mouse RAW264.7 cells assessed as inhibition of LPS-induced NO production incubated for 20 hrs by Griess method; format: functional, cell-based; conditions: RAW264.7, 20 h
[16] = test system: RAW264.7; assay: Antiinflammatory activity in mouse RAW264.7 cells assessed as inhibition of LPS-induced NO production incubated for 18 hrs by Griess method; format: functional, cell-based; conditions: RAW264.7, 18 h
[17] = test system: RAW264.7; assay: Antiinflammatory activity in mouse RAW264.7 cells assessed as inhibition of LPS-induced NO production at 10 ug/ml incubated for 20 hrs by Griess reagent based microplate reader analysis; format: functional
[18] = test system: RAW264.7; assay: Antiinflammatory activity in mouse RAW264.7 cells assessed as inhibition of LPS-induced NO production incubated for 20 hrs by Griess reagent based microplate reader analysis; format: functional, cell-based; conditions: RAW264.7, 20 h
[19] = test system: Mus musculus; assay: Antiinflammatory activity in TPA-induced ear edema ICR mouse model assessed as inhibition of ear inflammation at 1 ug, TOP for 30 mins followed by TPA addition and measured after 6 hrs; format: functional; conditions: dose 1 µg, time 390 min, 6.5 h
[20] = test system: Rattus norvegicus; assay: Antiinflammatory activity in Wistar rat model of carrageenan-induced paw edema assessed as reduction in paw thickness at 10 mg/kg,po and measured after 5 hrs; format: functional; set-up: scale not given: the % may be the effect or the level left
[21] = test system: RAW264.7; assay: Antiinflammatory activity in mouse RAW264.7 cells assessed as inhibition of LPS-induced iNOS expression at 25 uM; format: functional
[22] = test system: RAW264.7; assay: Antiinflammatory activity in mouse RAW264.7 cells assessed as inhibition of KLA-induced TNFalpha expression at 0.06 mg/ml and measured after 24 hrs by ELISA; format: functional

Question: For `COc1cc(C[C@H]2O[C@@H](CC(=O)c3ccc(O)c(OC)c3)C[C@H]2O)ccc1O`, which IC50 [1] is on record?
Answer: > 100 µM

Question: With `CCCCC1C(=O)N(c2ccccc2)N(c2ccc(O)cc2)C1=O` (stereo unspecified) [OXYPHENBUTAZONE ANHYDROUS] as the compound, how does the ID50 [2] read?
Answer: 12 µg

Question: What about the ID50 [3] of the same compound?
Answer: 46 µg

Question: And the ID30 [4]?
Answer: 0.2 µg

Question: And the ID30 [5]?
Answer: 0.3 µg

Question: What does the source list for `OC(CC/C=C/c1ccccc1)CCc1ccccc1` (stereo unspecified)?
Answer: Activity [6]: 30%; ID30 [4]: 35 µg; ID30 [5]: 28 µg

Question: For `OC[C@H]1O[C@@H](O[C@H](CCCCc2ccc(O)cc2)CCc2ccc(O)cc2)[C@H](O)[C@@H](O)[C@@H]1O`, which inhibition at 30 µM [7] is on record?
Answer: 24%

Question: What about the IC50 [8] of the same compound?
Answer: 100 µM

Question: And the ID50 [9]?
Answer: 0.66 mg

Question: What does the source list for `O=C(CCCCc1ccc(O)c(O)c1)CCc1ccc(O)c(O)c1`?
Answer: IC50 [10]: 20.1 µM; IC50 [11]: 30.1 µM; IC50 [12]: 12.7 µM; IC50 [13]: 6.6 µM; IC50 [14]: 22.7 µM; IC50 [15]: 2.6 µM; IC50 [16]: 16.8 µM

Question: Which IC50 [1] does the source give for `COc1cc(C(=O)[C@@H](O)[C@@H]2CCC[C@H](c3ccc(O)c(OC)c3)O2)ccc1O` here?
Answer: 38.9 µM

Question: Which results are given for `COc1cc(CCC(=O)CC(O)CCc2ccc(O)c(OC)c2)ccc1O` (stereo unspecified) [HEXAHYDROCURCUMIN]?
Answer: inhibition at 10 µg/mL [17]: 32%; IC50 [18]: > 30 µM

Question: Which ID50 [19] does the source give for `O=C(/C=C/CCc1ccccc1)CCc1ccccc1` here?
Answer: 2.7 µmol

Question: And the IC50 [18]?
Answer: 6.8 µM

Question: And the Activity [20]?
Answer: 4.7%

Question: What about the inhibition at 25 µM [21] of the same compound?
Answer: 71%

Question: And the inhibition at 60 µg/mL [22]?
Answer: 38%

Reference: ChEMBL document CHEMBL5233262, “Anti-inflammatory activity of naturally occuring diarylheptanoids - A review” (Bioorg Med Chem, 2021)
